Consider three compounds from US7211436B1, “Compositions and methods for regulating abscisic acid-induced closure of plant stomata” (The Penn State Research Foundation, priority 1999, dated 2007).

The test system of assay [1] is slow anion channels. Description: Whole-cell patch-clamp of guard cell protoplasts, anion channel activation. It counts as cell-based, Vicia faba. As for the experimental part: Anion channel activation was measured in guard cell protoplasts. Whole-cell patch-clamp experiments were performed according to established methods. Pipette solution contained 100 mM KCl, 50 mM tetramethylammonium, 2 mM MgCl, 6.7 mM EGTA-(Tris)2, 3.35 mM CaCl2, 10 mM HEPES, pH=7.1 (Tris) and 5 mM Mg-ATP. Bath solution contained 40 mM CaCl2, 2 mM MgCl and 10 mM MES-Tris pH5.6. Osmolalities were adjusted with sorbitol to 500 mosmol/kg (in the pipette) or 470 mosmol/kg (in the bath). Protein kinase inhibitor K-252a (Calbiochem) was prepared as a stock solution at 2 mM in dimethyl sulfoxide (DMSO).

The test system of assay [2] is guard cells (stomatal aperture). Nature of the assay: ABA-mediated prevention of stomatal opening in abaxial epidermal peels of transformed V. faba leaves. It counts as cell-based, Vicia faba. As to conditions: ABA 50 μM, illuminated. As for the experimental part:
(§1) Analysis of AAPK mutants for stomatal aperture changes and anion channel activation. V. faba leaves were biolistically transformed with the pGFP, pAAPK-GFP, or pAAPK(K43A)-GFP constructs. The V. faba leaves were bombarded with gold particles (Bio-Rad) coated with one of the DNA constructs. Bombardment was via a particle delivery system 1000/He (Bio-Rad) as described. (J. Marc et al., 1998, Plant Cell 10:1927).
(§2) Abaxial epidermal peels were isolated and the transformed guard cells were assayed for ABA-mediated prevention of stomatal opening and for stomatal closure stimulated by ABA, CO2 or darkness. Conditions were as in Assman, S., and Baskin, T. (1998) J. Exp. Bot. 49:163 except that the incubation solution was 10 mM MES, 30 mM KCl, pH=6.1, with or without 50 μM {±} cis,trans-ABA. For closure experiments, the transformed leaves were illuminated with 0.20 mmol m^−2 s^−1 white light for 2.5 h to open the stomata. The abaxial epidermal peels were placed in incubation solution and treated with either darkness, 25 μM {±} cis,trans-ABA or with 700 ppm CO2 for 1 h.

Assay [3] has the same test system. Nature of the assay: Stomatal closure in abaxial epidermal peels of transformed V. faba leaves. It counts as cell-based, Vicia faba. To be noted: for change in half aperture of stomata, closure: 1 h, illuminated. As for the experimental part: as §1, §2
The subject of assay [4] is AAPK. Description: Kinase activity of immunoprecipitated GFP fusion proteins with histone III-S as substrate. It is filed as biochemical, Vicia faba. As to conditions: cells transfected with pAAPK-GFP; protoplasts treated with ABA prior to isolation of the proteins. The text has this:
Analysis of AAPK mutants and hybrid expression DNA constructs for ABA-activated protein kinase activity. 1.5×10^7 V. faba guard cell protoplasts were transfected with either the vector, pGFP, or the constructs, pAAPK-GFP or pAAPK(K43A)-GFP by polyethylene glycol (PEG)-mediated DNA transfer. After uptake and expression, protoplasts were lysed and recombinant protein was immunoprecipitated with anti-GFP peptide antibodies (Clontech) and protein A-Sepharose CL-4B (Amersham Pharmacia Biotech). Immunoprecipitated proteins were assayed for kinase activity using histone III-S (Sigma) as substrate.

Assay [5] has as its system native AAPK. Nature of the assay: Native AAPK activity. It is filed as biochemical, Vicia faba. As for the experimental part: Isolation and Identification of ABA-Activated Protein Kinase (AAPK). Guard cell protoplasts (2×10^6; 99.6% pure) were prepared from Vicia faba. Protoplasts were treated with either darkness, ABA or elevated CO2 concentrations prior to protein isolation. Protoplast proteins were extracted and subjected to 2-dimensional gel electrophoresis. Separation was via 12% SDS-polyacrylamide gel electrophoresis (SDS-PAGE). Kinase autophosphorylation activity of subsequently renatured proteins was detected by established methods.

Setting [6] is: AAPK(K43A)-GFP transformed guard cells, ABA 25 μM or CO2 700 ppm.
[7] abbreviates: AAPK(K43A)-GFP, untransformed guard cells, ABA 25 μM or CO2 700 ppm.

Structures are written as SMILES.

On to `CC1=CC(=O)CC(C)(C)C1(O)/C=C/C(C)=C\C(=O)O` (racemic) [ABA, abscisic acid], for which the “effect on slow anion channels” value in assay [1] (V. faba guard cells) is “activated”. Besides, the “effect on anion current magnitude” value in assay [1] (whole-cell configuration) was “increased”. For the same compound, the “change in half aperture of stomata, opening” value in assay [2] (AAPK(K43A)-GFP transformed guard cells) is 0.42 ± 0.17 (46) micrometers; in assay [2] (AAPK(K43A)-GFP, untransformed guard cells), 0.44 ± 0.15 (46) micrometers; in assay [2] (AAPK-GFP column, untransformed guard cells), 0.41 ± 0.28 (36) micrometers; in assay [2] (AAPK-GFP transformed guard cells), 0.43 ± 0.22 (36) micrometers; in assay [2] (GFP column, untransformed guard cells) it was 0.45 ± 0.27 (36) micrometers; in assay [2] (GFP transformed guard cells), 0.42 ± 0.22 (36) micrometers. In addition, the “change in half aperture of stomata, closure” value is −0.36 ± 0.26 (56) micrometers in assay [3] (setting [6]); −2.55 ± 0.21 (56) micrometers in assay [3] (setting [7]); −2.58 ± 0.24 (36) micrometers in assay [3] (AAPK-GFP column, untransformed guard cells, ABA 25 μM); −2.59 ± 0.30 (36) micrometers in assay [3] (AAPK-GFP transformed guard cells, ABA 25 μM); −2.54 ± 0.35 (36) micrometers in assay [3] (GFP column, untransformed guard cells, ABA 25 μM); −2.52 ± 0.29 (36) micrometers in assay [3] (GFP transformed guard cells, ABA 25 μM). The “histone phosphorylation activity of immunoprecipitate after ABA treatment of protoplasts” value in assay [4] is given as “significantly enhanced”.

For the compound `O=C=O` [CO2], the “change in half aperture of stomata, closure” value in assay [3] (setting [6]) is given as −2.23 ± 0.44 (36) micrometers; in assay [3] (setting [7]), −2.31 ± 0.46 (36) micrometers.

Turning to `COC(=O)[C@@]1(O)C[C@H]2O[C@]1(C)n1c3ccccc3c3c4c(c5c6ccccc6n2c5c31)C(=O)NC4` [K-252a], the “effect on ABA regulation of anion channels” value in assay [1] (untransformed cells) was “inhibits”. The “effect on ABA-induced stomatal closure” value in assay [3] (kinase inhibitor, untransformed cells) is “inhibits”. For the same compound, in assay [5], the “effect on native AAPK activity” value is “inhibits”.
